For series [1], the target named is T1, human D1R (Homo sapiens, UniProt P21728).
T1 construct: endogenously expressed human D1R in the SK-N-MC cell line (ATCC); host or cells: SK-N-MC human neuroblastoma cells
The experiment in a line: potentiator-mode cAMP assay (HTRF) in SK-N-MC neuroblastoma cells endogenously expressing human D1R. The note with it: no DA. Type of series: cell-based.

Series [2] addresses T1, human D1R. The description is as above. It is filed as cell-based. The note with it: for Emax: SK-N-MC, read-out: % maximum increase (efficacy over DA EC70); for EC50: potency of the compound at the DA EC70 concentration. As for the experimental part: An in-house chemical library of 250 compounds was screened using an in vitro assay measuring accumulation of cAMP in a human neuroblastoma SK-N-MC cell line stably expressing physiological levels of the D1R but not the D5R.[41] To assess allosteric modulation of the D1R, cells were treated with a fixed concentration of the test compounds (10 μM) for 15 min and then co-incubated with increasing concentrations of the endogenous agonist DA. The cAMP concentration was quantified by homogeneous time-resolved fluorescence energy transfer (HTRF) and the effect of each compound on the DA concentration–response curve was measured.
The PAM efficacy was measured as the percentage of increase over DA EC70 and the potency as the EC50 observed in the concentration–response curve.
Functional studies at human D1 and D2 receptors were carried out in endogenously expressed human D1R in the SK-N-MC cell line (ATCC), and recombinant human D2R stably transfected in an in-house CHO cell line. Cells were thawed and seeded into a black 96-well plate (1 × 10^4 cells/well for SK-N-MC cell line, 5 × 10^3 cells/well for CHO cell line) in Opti-MEM containing 500 μM IBMX (3-isobutyl-1-methylxanthine).

For series [3], the system named is reserpinized C57BL/6 mice. The series is described as follows: locomotor activity in reserpinized mice. It is filed as in vivo, mouse. The note with it: reserpine 2.5 mg/kg sc; 26 30 mg/kg po; L-DOPA 100 or 400 mg/kg ip. As for the experimental part:
The study was carried out in male C57BL/6 wild-type (22–25 g) mice that were acclimatized for 5 days. Animals were randomized based on body weight into six groups (G1 to G6), ten animals per group (n = 10), being group G1 the naïve control group. Animals were fed with standard diet ad libitum. Animals were dosed with subcutaneous administration of reserpine (2.5 mg/kg in DMSO/saline) and after 20 h they were treated with a vehicle (10 mL/kg, po), compound 26 (30 mg/kg, po), L-DOPA (100 or 400 mg/kg, ip) + carbidopa (100 mg/kg, ip) and/or their combination, as indicated in Figure 7. The vehicle employed for compound 26 administration was 5% NMP + 5% solutol HS-15 + 90% normal saline. L-DOPA and carbidopa were administered 30 min prior to start of locomotor activity recording. Compound 26 was administered and 15 min later, mice were placed in the locomotor activity cage to measure the locomotor activity for 60 min (total distance travelled) using ALL Maze version 0.5 automated software enabled with video tracking system. After the activity sessions, raw data were reduced using ALL Maze 5.0 software and Microsoft Excel. Statistical analysis was done with GraphPad Prism-5 using one way ANOVA followed by Dunnett’s test/Tukey’s post hoc test and/or two-way ANOVA followed by Bonferroni post hoc test. Data were considered statistically significant, if P value was less than 0.05.

The mark [4] stands for this setting: concentration–response curve of the compound over DA EC70.

The values that follow come from article PMC9511493, “2-(Fluoromethoxy)-4′-(S-methanesulfonimidoyl)-1,1′-biphenyl (UCM-1306), an Orally Bioavailable Positive Allosteric Modulator of the Human Dopamine D1 Receptor for Parkinson’s Disease” (Journal of Medicinal Chemistry, 2022).

T1 sequence (P21728 whole entry): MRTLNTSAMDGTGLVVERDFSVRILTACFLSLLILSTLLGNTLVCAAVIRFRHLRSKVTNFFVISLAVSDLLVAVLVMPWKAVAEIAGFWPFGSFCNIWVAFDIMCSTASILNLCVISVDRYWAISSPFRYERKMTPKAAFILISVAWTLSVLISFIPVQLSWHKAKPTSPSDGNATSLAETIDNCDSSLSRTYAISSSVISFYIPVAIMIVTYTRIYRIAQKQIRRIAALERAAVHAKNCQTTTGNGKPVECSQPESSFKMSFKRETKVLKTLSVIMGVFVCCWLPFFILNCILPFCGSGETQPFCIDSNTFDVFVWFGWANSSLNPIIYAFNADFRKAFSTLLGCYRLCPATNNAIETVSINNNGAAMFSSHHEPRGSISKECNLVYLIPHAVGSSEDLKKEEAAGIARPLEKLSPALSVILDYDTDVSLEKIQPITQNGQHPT

With `C[S@](=N)(=O)c1ccc(-c2ccccc2OCF)cc1` [(S)-26, (S)-2-(Fluoromethoxy)-4′-(S-methanesulfonimidoyl)-1,1′-biphenyl], the “cAMP response in the absence of DA (agonist activity)” value at human D1R [1] is “no agonist activity”.

`O=Cc1ccc(-c2ccc(OC(F)F)cc2)cc1` [Compound 5]: on human D1R [2] (setting [4]), the Emax was 37 ± 5%. In addition, the EC50 at human D1R [2] was found to be 2.3 ± 0.4 µM. In the same order, the values of `O=Cc1ccc(-c2cccc(OC(F)F)c2)cc1` [Compound 6] are 35 ± 7% and 10.8 ± 1.6 µM.

On to `O=Cc1ccc(-c2ccccc2OC(F)F)cc1` [Compound 7], for which, on human D1R [2] (setting [4]), the Emax amounted to 62% and the “% maximum increase (efficacy over DA EC70)” value is listed as 62 ± 10%. For the same compound, the EC50 on human D1R [2] worked out at 18.5 ± 2.7 µM. With `O=Cc1ccc(-c2ccccc2SC(F)F)cc1` [Compound 10, 2′-[(Difluoromethyl)sulfanyl][1,1′-biphenyl]-4-carbaldehyde], the melting point fell in the range of 46 to 47 °C. Also, on human D1R [2] (setting [4]), the Emax stood at 101 ± 10%. Besides, at human D1R [2], the EC50 is 21.8 ± 3.6 µM. Consider `NS(=O)(=O)c1ccc(-c2ccccc2OCF)cc1` [Compound 18], for which the Emax on human D1R [2] (setting [4]) was determined as 42 ± 7%. The EC50 at human D1R [2] came to 4.93 ± 1.2 µM. As for `CNS(=O)(=O)c1ccc(-c2ccccc2OCF)cc1` [Compound 19], the Emax on human D1R [2] (setting [4]) turned out to be 28 ± 8%. On human D1R [2], the EC50 was found to be 1.26 ± 0.7 µM. In the case of `CS(=O)(=O)c1ccc(-c2ccccc2OCF)cc1` [Compound 20], the Emax at human D1R [2] (setting [4]) was 30 ± 8%. Also, at human D1R [2], the EC50 is 13.1 ± 2.8 µM.

For `C[S+]([O-])c1ccc(-c2ccccc2OCF)cc1` (stereo not shown) [Compound 23], on human D1R [2] (setting [4]), the Emax amounted to 73 ± 6%. On human D1R [2], the concentration giving a half-maximal response (EC50) was determined as 21.7 ± 5.8 µM. In the same order, the values of `CCS(=N)(=O)c1ccc(-c2ccccc2OCF)cc1` (stereo not shown) [Compound 25] are 50 ± 7% and 30.2 ± 2.4 µM.

On to `CN=S(C)(=O)c1ccc(-c2ccccc2OCF)cc1` (stereo not shown) [Compound 27], for which the Emax on human D1R [2] (setting [4]) came out at 33 ± 3%. In addition, on human D1R [2], the EC50 was determined as 15.9 ± 2.7 µM.

In the case of `C[S@@](=N)(=O)c1ccc(-c2ccccc2OCF)cc1` [Compound (R)-26, (R)-2-(Fluoromethoxy)-4′-(S-methanesulfonimidoyl)-1,1′-biphenyl], the “cAMP response in the absence of DA (agonist activity)” value on human D1R [1] is on record as “no agonist activity”. In the case of `N[C@@H](Cc1ccc(O)c(O)c1)C(=O)O` [L-DOPA, reference compound], the “recovery of decreased locomotor activity, substance alone” value in series [3] is “small recovery of decreased locomotor activity”.
